Source: patent US12479830B2, “Homopiperazinyl and homopiperidinyl quinazolin-4(3H)-one derivatives having multimodal activity against pain” (ESTEVE PHARMACEUTICALS, S.A., priority 2019, dated 2025)

Legend:
[1] = molecular target: Human α2δ-1 subunit of Cav2.2 calcium channel (Homo sapiens, UniProt P54289); assay: Human α2δ-1 subunit of Cav2.2 calcium channel assay ([3H]-gabapentin binding); details: binding to the α2δ-1 subunit of voltage-gated calcium channels, expressed as Ki class; + also covers inhibition between 1% and 50%
How it was run: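 Affinity (Ki, five concentrations) or % inhibition at 1 or 10 μM, from displacement of 15 nM [3H]-gabapentin on human α2δ-1 membranes. Incubation 60 min, 27° C., Hepes-KOH 10 mM pH 7.4; 10 μM pregabalin defined non-specific binding; bound radioactivity counted after GF/C filtration.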

Human σ1 receptor = molecular target: T1, Human σ1 receptor (Homo sapiens, UniProt Q99720); assay: Human σ1 receptor radioligand assay ([3H](+)-pentazocine binding); details: binding to the σ1 receptor, expressed as Ki class; + also covers inhibition between 1% and 50%
T1 construct: expressed in transfected cells; host or cells: HEK-293
How it was run: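 Ki was derived from five test concentrations, or % inhibition was measured at a single 1 or 10 μM dose, against 5 nM [3H](+)-pentazocine. Incubation was 120 min at 37° C in 50 mM Tris-HCl pH 8 with 7 μg HEK-293 membranes, and 10 μM haloperidol set non-specific binding. Bound radioactivity was counted after filtration.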

Chain of Human α2δ-1 subunit of Cav2.2 calcium channel (P54289 25-1103): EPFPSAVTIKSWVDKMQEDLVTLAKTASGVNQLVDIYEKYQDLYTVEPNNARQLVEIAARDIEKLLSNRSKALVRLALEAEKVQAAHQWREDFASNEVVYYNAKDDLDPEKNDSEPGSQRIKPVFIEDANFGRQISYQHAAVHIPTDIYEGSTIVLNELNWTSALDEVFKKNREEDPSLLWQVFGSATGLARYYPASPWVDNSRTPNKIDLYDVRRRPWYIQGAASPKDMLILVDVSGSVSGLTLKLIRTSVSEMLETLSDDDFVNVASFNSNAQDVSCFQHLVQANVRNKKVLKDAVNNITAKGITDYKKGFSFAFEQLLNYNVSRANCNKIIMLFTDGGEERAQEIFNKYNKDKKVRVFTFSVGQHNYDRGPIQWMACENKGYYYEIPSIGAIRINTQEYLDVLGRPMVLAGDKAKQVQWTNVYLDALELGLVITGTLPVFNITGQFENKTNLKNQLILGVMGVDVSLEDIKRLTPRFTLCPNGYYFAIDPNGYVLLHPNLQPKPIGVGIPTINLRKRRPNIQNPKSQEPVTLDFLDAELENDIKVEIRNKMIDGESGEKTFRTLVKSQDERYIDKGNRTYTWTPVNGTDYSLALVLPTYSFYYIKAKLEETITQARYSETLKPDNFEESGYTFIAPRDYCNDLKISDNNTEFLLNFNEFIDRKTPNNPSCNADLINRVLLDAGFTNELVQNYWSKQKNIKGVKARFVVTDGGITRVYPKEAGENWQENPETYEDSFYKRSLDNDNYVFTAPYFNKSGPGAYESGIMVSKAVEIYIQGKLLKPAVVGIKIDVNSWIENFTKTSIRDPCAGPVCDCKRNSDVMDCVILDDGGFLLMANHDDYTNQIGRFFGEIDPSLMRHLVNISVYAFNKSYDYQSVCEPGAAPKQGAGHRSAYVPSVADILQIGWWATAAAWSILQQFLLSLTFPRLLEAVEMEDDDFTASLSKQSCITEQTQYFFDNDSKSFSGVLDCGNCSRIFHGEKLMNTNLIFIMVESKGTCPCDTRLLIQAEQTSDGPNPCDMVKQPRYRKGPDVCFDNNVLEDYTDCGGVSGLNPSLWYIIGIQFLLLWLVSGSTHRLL
T1 sequence (Q99720 whole entry): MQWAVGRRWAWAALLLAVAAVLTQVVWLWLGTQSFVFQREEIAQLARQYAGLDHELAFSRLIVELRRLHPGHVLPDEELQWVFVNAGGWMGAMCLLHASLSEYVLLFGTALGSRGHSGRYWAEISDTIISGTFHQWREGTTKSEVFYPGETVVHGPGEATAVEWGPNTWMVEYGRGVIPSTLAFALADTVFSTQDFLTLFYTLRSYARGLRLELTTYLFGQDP

CCCC(c1nc2ccc(F)c(F)c2c(=O)n1CC)N1CCCN(C)CC1 (stereo not drawn) [Example 72, 3-ethyl-5,6-difluoro-2-(1-(4-methyl-1,4-diazepan-1-yl)butyl)quinazolin-4(3H)-one]
Ki [1]: < 500 nM | Ki (Human σ1 receptor): < 500 nM

CCC[C@H](c1nc2ccc(F)cc2c(=O)n1CC(C)C)N1CCCN(CC)CC1 [Example 215, (R)-2-(1-(4-ethyl-1,4-diazepan-1-yl)butyl)-6-fluoro-3-isobutylquinazolin-4(3H)-one]
Ki [1]: < 500 nM | Ki (Human σ1 receptor): < 500 nM

CCC[C@H](c1nc2cc(F)c(Br)cc2c(=O)n1CC)N1CCN(C)C[C@H](C)C1 [Example 127, 6-Bromo-2-((R)-1-((S)-4,6-dimethyl-1,4-diazepan-1-yl)butyl)-3-ethyl-7-fluoroquinazolin-4(3H)-one]
Ki [1]: < 500 nM | Ki (Human σ1 receptor): 500 to 1000 nM

CCC[C@@H](c1nc2ccc(Cl)cc2c(=O)n1C)N1CCCN[C@H](C)C1 [Example 150, 6-chloro-3-methyl-2-((S)-1-((R)-3-methyl-1,4-diazepan-1-yl)butyl)quinazolin-4(3H)-one]
Ki [1]: > 5000 nM | Ki (Human σ1 receptor): 500 to 1000 nM

CCCC(c1nc2cc(F)c(F)cc2c(=O)n1CC)N1CCCN(C)CC1 (stereo not drawn) [Example 29, 3-ethyl-6,7-difluoro-2-(1-(4-methyl-1,4-diazepan-1-yl)butyl)quinazolin-4(3H)-one]
Ki [1]: < 500 nM | Ki (Human σ1 receptor): 500 to 1000 nM

CCC[C@@H](c1nc2ccc(Br)cc2c(=O)n1CC)N1CC[C@H](C)N(C)CC1 [Example 263]
Ki [1]: > 5000 nM | Ki (Human σ1 receptor): > 1000 nM

CCC[C@H](c1nc2ccc(F)cc2c(=O)n1CC1CC1)N1CCCN(C)CC1 [Example 219, (R)-3-(cyclopropylmethyl)-6-fluoro-2-(1-(4-methyl-1,4-diazepan-1-yl)butyl)quinazolin-4(3H)-one]
Ki [1]: < 500 nM | Ki (Human σ1 receptor): < 500 nM

CCC[C@@H](c1nc2c(F)cc(Br)cc2c(=O)n1CC)N1CCCN(C)CC1 [Example 162, (S)-6-bromo-3-ethyl-8-fluoro-2-(1-(4-methyl-1,4-diazepan-1-yl)butyl)quinazolin-4(3H)-one]
Ki [1]: > 5000 nM | Ki (Human σ1 receptor): 500 to 1000 nM

CCCC(c1nc2cc(C)c(Br)cc2c(=O)n1CC)N1CCCN(CC)CC1 (stereo not drawn) [Example 48, 6-bromo-3-ethyl-2-(1-(4-ethyl-1,4-diazepan-1-yl)butyl)-7-methylquinazolin-4(3H)-one]
Ki [1]: < 500 nM | Ki (Human σ1 receptor): < 500 nM

CCCC(c1nc2ccncc2c(=O)n1CC)N1CCCN(C)CC1 (stereo not drawn) [Example 163, 3-Ethyl-2-(1-(4-methyl-1,4-diazepan-1-yl)butyl)pyrido[4,3-d]pyrimidin-4(3H)-one]
Ki [1]: < 500 nM | Ki (Human σ1 receptor): > 1000 nM

CCC[C@H](c1nc2ccc(F)cc2c(=O)n1C)N1CCN[C@H](C)CC1 [Example 255, 6-fluoro-3-methyl-2-((R)-1-((R)-5-methyl-1,4-diazepan-1-yl)butyl)quinazolin-4(3H)-one]
Ki [1]: > 5000 nM | Ki (Human σ1 receptor): > 1000 nM

CCCC(c1nc2cc(F)c(Br)cc2c(=O)n1CC)N1CCCN(C)CC1 (stereo not drawn) [Example 13, 6-bromo-3-ethyl-7-fluoro-2-(1-(4-methyl-1,4-diazepan-1-yl)butyl)quinazolin-4(3H)-one]
Ki [1]: < 500 nM | Ki (Human σ1 receptor): < 500 nM

CCC[C@H](c1nc2ccncc2c(=O)n1CC)N1CCN(C)C[C@H](C)C1 [Example 169, 2-((R)-1-((S)-4,6-dimethyl-1,4-diazepan-1-yl)butyl)-3-ethylpyrido[4,3-d]pyrimidin-4(3H)-one]
Ki [1]: < 500 nM | Ki (Human σ1 receptor): > 1000 nM

CCC[C@H](c1nc2c(F)cc(F)cc2c(=O)n1CC)N1CCCN(C)CC1 [Example 247, (R)-3-ethyl-6,8-difluoro-2-(1-(4-methyl-1,4-diazepan-1-yl)butyl)quinazolin-4(3H)-one]
Ki [1]: < 500 nM | Ki (Human σ1 receptor): 500 to 1000 nM

CCCC(c1nc2cccnc2c(=O)n1CC)N1CCCN(C)CC1 (stereo not drawn) [Example 86, 3-ethyl-2-(1-(4-methyl-1,4-diazepan-1-yl)butyl)pyrido[3,2-d]pyrimidin-4(3H)-one]
Ki [1]: > 5000 nM | Ki (Human σ1 receptor): > 1000 nM

CCC[C@H](c1nc2cc(F)c(Cl)cc2c(=O)n1CC)N1CCN(C)C[C@@H](C)C1 [Example 136, 6-chloro-2-((R)-1-((R)-4,6-dimethyl-1,4-diazepan-1-yl)butyl)-3-ethyl-7-fluoroquinazolin-4(3H)-one]
Ki [1]: < 500 nM | Ki (Human σ1 receptor): 500 to 1000 nM

CCCC(c1nc2c(C)cc(Br)cc2c(=O)n1CC)N1CCCN(CC)CC1 (stereo not drawn) [Example 60, 6-bromo-3-ethyl-2-(1-(4-ethyl-1,4-diazepan-1-yl)butyl)-8-methylquinazolin-4(3H)-one]
Ki [1]: > 5000 nM | Ki (Human σ1 receptor): < 500 nM

CCC[C@@H](c1nc2ccc(Br)cc2c(=O)n1CC)N1CCCN[C@@H](C)C1 [Example 140, 6-bromo-3-ethyl-2-((S)-1-((S)-3-methyl-1,4-diazepan-1-yl)butyl)quinazolin-4(3H)-one]
Ki [1]: > 5000 nM | Ki (Human σ1 receptor): > 1000 nM

CCC[C@@H](c1nc2ccc(Br)cc2c(=O)n1CCC)N1CCNC[C@@H](C)C1 [Example 70, 6-bromo-2-((S)-1-((R)-6-methyl-1,4-diazepan-1-yl)butyl)-3-propylquinazolin-4(3H)-one]
Ki [1]: > 5000 nM | Ki (Human σ1 receptor): > 1000 nM

CCC[C@H](c1nc2ccc(F)cc2c(=O)n1C)N1CCCN(C)CC1 [Example 216, (R)-6-fluoro-3-methyl-2-(1-(4-methyl-1,4-diazepan-1-yl)butyl)quinazolin-4(3H)-one]
Ki [1]: 500 to 5000 nM | Ki (Human σ1 receptor): < 500 nM

CCC[C@@H](c1nc2cc(F)c(Cl)cc2c(=O)n1CC)N1CCN(C)C[C@H](C)C1 [Example 137, 6-chloro-2-((S)-1-((S)-4,6-dimethyl-1,4-diazepan-1-yl)butyl)-3-ethyl-7-fluoroquinazolin-4(3H)-one]
Ki [1]: > 5000 nM | Ki (Human σ1 receptor): 500 to 1000 nM

CCCC(c1nc2ccc(Br)cc2c(=O)n1CCC)N1CCCN(CC)CC1 (stereo not drawn) [Example 20, 6-bromo-2-(1-(4-ethyl-1,4-diazepan-1-yl)butyl)-3-propylquinazolin-4(3H)-one]
Ki [1]: < 500 nM | Ki (Human σ1 receptor): < 500 nM

CCC[C@H](c1nc2c(F)cc(F)cc2c(=O)n1CC)N1CCN[C@@H](C)CC1 [Example 251, 3-ethyl-6,8-difluoro-2-((R)-1-((S)-5-methyl-1,4-diazepan-1-yl)butyl)quinazolin-4(3H)-one]
Ki [1]: 500 to 5000 nM | Ki (Human σ1 receptor): < 500 nM

CCC[C@H](c1nc2ccc(Cl)cc2c(=O)n1C)N1CCCN[C@H](C)C1 [Example 147, 6-Chloro-3-methyl-2-((R)-1-((R)-3-methyl-1,4-diazepan-1-yl)butyl)quinazolin-4(3H)-one]
Ki [1]: < 500 nM | Ki (Human σ1 receptor): < 500 nM

CCC[C@H](c1nc2ccncc2c(=O)n1CC)N1CCNC[C@H](C)C1 [Example 164, 3-ethyl-2-((R)-1-((S)-6-methyl-1,4-diazepan-1-yl)butyl)pyrido[4,3-d]pyrimidin-4(3H)-one]
Ki [1]: < 500 nM | Ki (Human σ1 receptor): > 1000 nM

CCCC(c1nc2cc(C#N)ccc2c(=O)n1CC)N1CCCN(C)CC1 (stereo not drawn) [Example 9, 3-ethyl-2-(1-(4-methyl-1,4-diazepan-1-yl)butyl)-4-oxo-3,4-dihydroquinazoline-7-carbonitrile]
Ki [1]: < 500 nM | Ki (Human σ1 receptor): > 1000 nM

CCC[C@H](c1nc2cc(F)c(Br)cc2c(=O)n1CC)N1CCCNCC1 [Example 157, (R)-2-(1-(1,4-Diazepan-1-yl)butyl)-6-bromo-3-ethyl-7-fluoroquinazolin-4(3H)-one]
Ki [1]: < 500 nM | Ki (Human σ1 receptor): > 1000 nM

CCCC(c1nc2ccc(Br)cc2c(=O)n1CC)N1CCN(C)CC(F)(F)C1 (stereo not drawn) [Example 42, 6-bromo-2-(1-(6,6-difluoro-4-methyl-1,4-diazepan-1-yl)butyl)-3-ethylquinazolin-4(3H)-one]
Ki [1]: > 5000 nM | Ki (Human σ1 receptor): > 1000 nM

CCC[C@@H](c1nc2cc(F)c(Br)cc2c(=O)n1CC)N1CCNC[C@@H](C)C1 [Example 99]
Ki [1]: 500 to 5000 nM | Ki (Human σ1 receptor): > 1000 nM

CCC[C@H](c1nc2ccc(Cl)cc2c(=O)n1CCC)N1CCCN(C)CC1 [Example 159, (R)-6-Chloro-2-(1-(4-methyl-1,4-diazepan-1-yl)butyl)-3-propylquinazolin-4(3H)-one]
Ki [1]: < 500 nM | Ki (Human σ1 receptor): < 500 nM

CCC[C@H](c1nc2ccncc2c(=O)n1CC)N1CCNC[C@@H](C)C1 [Example 165, 3-ethyl-2-((R)-1-((R)-6-methyl-1,4-diazepan-1-yl)butyl)pyrido[4,3-d]pyrimidin-4(3H)-one]
Ki [1]: < 500 nM | Ki (Human σ1 receptor): > 1000 nM

CCCC(c1nc2cc(Br)c(F)cc2c(=O)n1CC)N1CCCN(CC)CC1 (stereo not drawn) [Example 63, 7-bromo-3-ethyl-2-(1-(4-ethyl-1,4-diazepan-1-yl)butyl)-6-fluoroquinazolin-4(3H)-one]
Ki [1]: < 500 nM | Ki (Human σ1 receptor): < 500 nM

CCCC(c1nc2cc(F)c(F)cc2c(=O)n1CC)N1CCCN(CC)CC1 (stereo not drawn) [Example 46, 3-ethyl-2-(1-(4-ethyl-1,4-diazepan-1-yl)butyl)-6,7-difluoroquinazolin-4(3H)-one]
Ki [1]: < 500 nM | Ki (Human σ1 receptor): < 500 nM

CCC[C@H](c1nc2ccc(C(F)(F)F)cc2c(=O)n1CC)N1CCCN(C)CC1 [Example 252, (R)-3-ethyl-2-(1-(4-methyl-1,4-diazepan-1-yl)butyl)-6-(trifluoromethyl)quinazolin-4(3H)-one]
Ki [1]: < 500 nM | Ki (Human σ1 receptor): < 500 nM

CCCC(c1nc2ccc(Cc3ccccc3)cc2c(=O)n1CC)N1CCCN(C)CC1 (stereo not drawn) [Example 207, 6-Benzyl-3-ethyl-2-(1-(4-methyl-1,4-diazepan-1-yl)butyl)quinazolin-4(3H)-one]
Ki [1]: < 500 nM | Ki (Human σ1 receptor): 500 to 1000 nM

CCC[C@H](c1nc2ccc(Br)cc2c(=O)n1CC)N1CCCN(C)CC1 [Example 151, (R)-6-Bromo-3-ethyl-2-(1-(4-methyl-1,4-diazepan-1-yl)butyl)quinazolin-4(3H)-one]
Ki [1]: < 500 nM | Ki (Human σ1 receptor): < 500 nM
